In patent publication US8846569B2, “Pesticidal bis-organosulfur compounds” (Merial Limited, priority 2009, dated 2014):
Where two headings read alike, the source gives them in different places.

What was measured:
[1] = tested on: Heliothis virescens; experiment: Tobacco budworm (Heliothis virescens) diet/egg test; assay type: in vivo; conditions: for mortality at 2500 ppm: Heliothis virescens, 120 h, read-out: mortality in comparison with untreated controls
Method: For evaluating control of tobacco budworm (Heliothis virescens) the test unit consisted of 96-well-microtiter plates containing an insect diet and 15-25 H. virescens eggs.
The compounds were formulated using a solution containing 75% v/v water and 25% v/v DMSO. Different concentrations of formulated compounds were sprayed onto the insect diet at 10 μl, using a custom built micro atomizer, at two replications.
(§1) After application, microtiter plates were incubated at about 28±1° C. and about 80±5% relative humidity for 5 days. Egg and larval mortality was then visually assessed.
The biological activity shown tables under CB.1 and CB.2 was evaluated on scale range from 0% as showing no biological activity to 100% as having total control. The biological tests were conducted as described above.

[2] = tested on: Myzus persicae; experiment: Green peach aphid (Myzus persicae) artificial diet test; assay type: in vivo; conditions: 72 h, read-out: mortality in comparison with untreated controls
From the text: For evaluating control of green peach aphid (Myzus persicae) the test unit consisted of 96-well-microtiter plates containing liquid artificial diet under an artificial membrane.
The compounds were formulated using a solution containing 75% v/v water and 25% v/v DMSO. Different concentrations of formulated compounds were pipetted into the aphid diet, using a custom built pipetter, at two replications.
After application, 5-8 adult aphids were placed on the artificial membrane inside the microtiter plate wells. The aphids were then allowed to suck on the treated aphid diet and incubated at about 23±1° C. and about 50±5% relative humidity for 3 days. Aphid mortality and fecundity was then visually assessed.

[3] = tested on: Megoura viciae; experiment: Vetch aphid (Megoura viciae) leaf disk test; assay type: in vivo; conditions: foliar, 120 h, read-out: mortality in comparison with untreated controls
Method: For evaluating control of vetch aphid (Megoura viciae) through contact or systemic means the test unit consisted of 24-well-microtiter plates containing broad bean leaf disks.
The compounds were formulated using a solution containing 75% v/v water and 25% v/v DMSO. Different concentrations of formulated compounds were sprayed onto the leaf disks at 2.5 μl, using a custom built micro atomizer, at two replications.
After application, the leaf disks were air-dried and 5-8 adult aphids placed on the leaf disks inside the microtiter plate wells. The aphids were then allowed to suck on the treated leaf disks and incubated at about 23±1° C. and about 50±5% relative humidity for 5 days. Aphid mortality and fecundity was then visually assessed.

[4] = tested on: Ceratitis capitata; experiment: Mediterranean fruitfly (Ceratitis capitata) diet/egg test; assay type: in vivo; conditions: 120 h, read-out: mortality in comparison with untreated controls
Method: For evaluating control of Mediterranean fruitfly (Ceratitis capitata) the test unit consisted of microtiter plates containing an insect diet and 50-80 C. capitata eggs.
The compounds were formulated using a solution containing 75% v/v water and 25% v/v DMSO. Different concentrations of formulated compounds were sprayed onto the insect diet at 5 nl, using a custom built micro atomizer, at two replications.
as §1

[5] = tested on: Anthonomus grandis; experiment: Boll weevil (Anthonomus grandis) diet/egg test; assay type: in vivo; conditions: 120 h, read-out: mortality in comparison with untreated controls
Method: For evaluating control of boll weevil (Anthonomus grandis) the test unit consisted of 24-well-microtiter plates containing an insect diet and 20-30 A. grandis eggs.
The compounds were formulated using a solution containing 75% v/v water and 25% v/v DMSO. Different concentrations of formulated compounds were sprayed onto the insect diet at 20 μl, using a custom built micro atomizer, at two replications.
After application, microtiter plates were incubated at about 23±1° C. and about 50±5% relative humidity for 5 days. Egg and larval mortality was then visually assessed.

[6] = tested on: Aedes aegypti; experiment: Aedes aegypti neonate larvae motility assay; assay type: in vivo; conditions: larval motility, dose response
Method: Compounds formulated in 100% DMSO are tested in microtiter plates containing 180 ul 1× Luria Broth media and 10 neonate A. aegypti larvae. The efficacy of a compound is determined based on the motility of the larvae as compared to average motility of control wells containing DMSO only. A dose response assay is conducted with compounds with >80% reduction in motility in the primary assay to determine an EC50 value. Selected compounds are advanced to insecticide secondary assays.

[7] = 2500 ppm, adult aphids on treated artificial diet, 3 days
[8] = 2500 ppm, adult aphids on sprayed broad bean leaf disks, 5 days
[9] = 2500 ppm, egg and larval mortality, 5 days

N#CC(CCC(F)(F)F)S(=O)(=O)CCC(F)(F)C(F)(F)F (stereo not shown) [CE. 1, reference compound]
activity in [%] ([1]; 800 ppm, scale 0% no biological activity to 100% total control): 0%

CCOC(=O)C(CCSC(F)(F)F)S(=O)(=O)CCC(F)(F)C(F)(F)F (stereo not shown) [II-3, Ethyl 2-(3,3,4,4,4-Pentafluoro-butane-1-sulfonyl)-4-trifluoromethylsulfanyl-butyrate]
mortality at 2500 ppm [2, 7]: > 90% | mortality at 2500 ppm [3, 8]: > 90% | mortality at 2500 ppm [4, 9]: > 90% | mortality at 2500 ppm [5, 9]: > 90% | EC50 [6]: < 5 µg/mL

CCOC(=O)C(C)(CCSC(F)(F)F)S(=O)(=O)CCC(F)(F)C(F)(F)F (stereo not shown) [II-4, Ethyl 2-methyl-2-(3,3,4,4,4-pentafluoro-butane-1-sulfonyl)-4-trifluoromethylsulfanyl-butyrate]
mortality at 2500 ppm [2, 7]: > 90% | mortality at 2500 ppm [3, 8]: > 90% | mortality at 2500 ppm [4, 9]: > 90% | mortality at 2500 ppm [5, 9]: > 90% | EC50 [6]: < 5 µg/mL

N#CC(CCSC(F)(F)F)S(=O)(=O)Cc1cccc(C(F)(F)F)c1 (stereo not shown) [II-5, 2-(3-Trifluoromethyl-phenylmethanesulfonyl)-4-trifluoromethylsulfanyl-butyronitrile]
EC50 [6]: < 5 µg/mL | melting point: 100 to 102 °C

CC(C#N)(CCSC(F)(F)F)S(=O)(=O)Cc1cccc(C(F)(F)F)c1 (stereo not shown) [II-6, 2-Methyl-2-(3-trifluoromethyl-phenylmethanesulfonyl)-4-trifluoromethylsulfanyl-butyronitrile]
EC50 [6]: < 5 µg/mL | melting point: 92 to 94 °C

N#CC(CCSC(F)(F)F)S(=O)(=O)Cc1ccc(Cl)nc1 (stereo not shown) [II-7, 2-(6-Chloro-pyridin-3-ylmethanesulfonyl)-4-trifluoromethylsulfanyl-butyronitrile]
melting point: 122 to 124 °C

N#CC(CCSC(F)(F)F)S(=O)(=O)Cc1ccc(C(F)(F)F)nc1 (stereo not shown) [II-9, 2-(6-Trifluoromethyl-pyridin-3-ylmethanesulfonyl)-4-trifluoromethylsulfanyl-butyronitrile]
melting point: 129 to 130 °C

CC(C#N)(CCSC(F)(F)F)S(=O)(=O)Cc1ccc(C(F)(F)F)nc1 (stereo not shown) [II-10, 2-Methyl-2-(6-trifluoromethyl-pyridin-3-ylmethanesulfonyl)-4-trifluoromethylsulfanyl-butyronitrile]
melting point: 109 to 110 °C

N#CC(CCSC(F)(F)F)S(=O)(=O)Cc1ccc(C(F)(F)F)cc1 (stereo not shown) [II-11, 2-(4-Trifluoromethyl-phenylmethanesulfonyl)-4-trifluoromethylsulfanyl-butyronitrile]
melting point: 153 to 155 °C

CC(C#N)(CCSC(F)(F)F)S(=O)(=O)Cc1ccc(C(F)(F)F)cc1 (stereo not shown) [II-12, 2-Methyl-2-(4-trifluoromethyl-phenylmethanesulfonyl)-4-trifluoromethylsulfanyl-butyronitrile]
melting point: 102 to 104 °C

N#CC(CCSC(F)(F)F)S(=O)(=O)Cn1ccc(C(F)(F)F)n1 (stereo not shown) [II-13, 2-(3-Trifluoromethyl-pyrazol-1-ylmethanesulfonyl)-4-trifluoromethylsulfanyl-butyronitrile]
melting point: 65 to 67 °C

CC(C#N)(CCSC(F)(F)F)S(=O)(=O)Cn1ccc(C(F)(F)F)n1 (stereo not shown) [II-14, 2-Methyl-2-(3-trifluoromethyl-pyrazol-1-ylmethanesulfonyl)-4-trifluoromethylsulfanyl-butyronitrile]
mortality at 2500 ppm [4, 9]: > 90% | mortality at 2500 ppm [5, 9]: > 90%

N#CC(CCSC(F)(F)F)SCCC(F)(F)C(F)(F)F (stereo not shown) [II-15, 2-(3,3,4,4,4-Pentafluoro-butylsulfanyl)-4-trifluoromethylsulfanyl-butyronitrile]
mortality at 2500 ppm [2, 7]: > 90% | mortality at 2500 ppm [3, 8]: > 90% | mortality at 2500 ppm [4, 9]: > 90% | mortality at 2500 ppm [5, 9]: > 90% | mortality at 2500 ppm [1, 9]: > 90% | EC50 [6]: < 5 µg/mL

N#CC(CCSC(F)(F)F)[S+]([O-])CCC(F)(F)C(F)(F)F (stereo not shown) [II-16, 2-(3,3,4,4,4-Pentafluoro-butane-1-sulfinyl)-4-trifluoromethylsulfanyl-butyronitrile]
mortality at 2500 ppm [2, 7]: > 90% | mortality at 2500 ppm [3, 8]: > 90% | mortality at 2500 ppm [4, 9]: > 90% | mortality at 2500 ppm [5, 9]: > 90%

CCC(C#N)(CCSC(F)(F)F)S(=O)(=O)CCC(F)(F)C(F)(F)F (stereo not shown) [II-17, 2-Ethyl-2-(3,3,4,4,4-pentafluoro-butane-1-sulfonyl)-4-trifluoromethylsulfanyl-butyronitrile]
mortality at 2500 ppm [2, 7]: > 90% | mortality at 2500 ppm [4, 9]: > 90% | mortality at 2500 ppm [5, 9]: > 90% | mortality at 2500 ppm [1, 9]: > 90% | EC50 [6]: < 5 µg/mL

CCCC(C#N)(CCSC(F)(F)F)S(=O)(=O)CCC(F)(F)C(F)(F)F (stereo not shown) [II-18, 2-(3,3,4,4,4-Pentafluoro-butane-1-sulfonyl)-2-(2-trifluoromethylsulfanyl-ethyl)-pentanenitrile]
mortality at 2500 ppm [4, 9]: > 90% | mortality at 2500 ppm [5, 9]: > 90% | EC50 [6]: < 5 µg/mL

CC(CCSC(F)(F)F)(C(=O)O)S(=O)(=O)CCC(F)(F)C(F)(F)F (stereo not shown) [II-19, 2-Methyl-2-(3,3,4,4,4-pentafluoro-butane-1-sulfonyl)-4-trifluoromethylsulfanyl-butyric acid]
mortality at 2500 ppm [3, 8]: > 90% | mortality at 2500 ppm [5, 9]: > 90%

CC(CCSC(F)(F)F)(C(N)=O)S(=O)(=O)CCC(F)(F)C(F)(F)F (stereo not shown) [II-20, 2-Methyl-2-(3,3,4,4,4-pentafluoro-butane-1-sulfonyl)-4-trifluoromethylsulfanyl-butyramide]
mortality at 2500 ppm [4, 9]: > 90% | mortality at 2500 ppm [5, 9]: > 90%

CNC(=O)C(C)(CCSC(F)(F)F)S(=O)(=O)CCC(F)(F)C(F)(F)F (stereo not shown) [II-21, 2,N-Dimethyl-2-(3,3,4,4,4-pentafluoro-butane-1-sulfonyl)-4-trifluoromethylsulfanyl-butyramide]
mortality at 2500 ppm [4, 9]: > 90% | mortality at 2500 ppm [5, 9]: > 90%

CN(C)C(=O)C(C)(CCSC(F)(F)F)S(=O)(=O)CCC(F)(F)C(F)(F)F (stereo not shown) [II-22, 2,N,N-Trimethyl-2-(3,3,4,4,4-pentafluoro-butane-1-sulfonyl)-4-trifluoromethylsulfanyl-butyramide]
mortality at 2500 ppm [2, 7]: > 90% | mortality at 2500 ppm [3, 8]: > 90% | mortality at 2500 ppm [4, 9]: > 90% | mortality at 2500 ppm [5, 9]: > 90% | EC50 [6]: < 5 µg/mL

CC(CCSC(F)(F)F)(C(N)=S)S(=O)(=O)CCC(F)(F)C(F)(F)F (stereo not shown) [II-23, 2-Methyl-2-(3,3,4,4,4-pentafluoro-butane-1-sulfonyl)-4-trifluoromethylsulfanyl-thiobutyramide]
mortality at 2500 ppm [4, 9]: > 90% | mortality at 2500 ppm [5, 9]: > 90% | mortality at 2500 ppm [1, 9]: > 90%

N#CC(CCSC(F)(F)F)S(=O)(=O)CCC(F)(F)C(F)(F)C(F)(F)F (stereo not shown) [II-24, 2-(3,3,4,4,5,5,5-Heptafluoro-pentane-1-sulfonyl)-4-trifluoromethylsulfanyl-butyronitrile]
mortality at 2500 ppm [2]: > 90% | mortality at 2500 ppm [3]: > 90% | mortality at 2500 ppm [5]: > 90%

CC(C#N)(CCSC(F)(F)F)S(=O)(=O)CCC(F)(F)C(F)(F)C(F)(F)F (stereo not shown) [II-25, 2-(3,3,4,4,5,5,5-Heptafluoro-pentane-1-sulfonyl)-2-methyl-4-trifluoromethylsulfanyl-butyronitrile]
mortality at 2500 ppm [2]: > 90% | mortality at 2500 ppm [3]: > 90% | mortality at 2500 ppm [4]: > 90% | mortality at 2500 ppm [5]: > 90% | mortality at 2500 ppm [1]: > 90%

CC(C#N)(CCSC(F)(F)F)S(=O)(=O)CCSC(F)(F)F (stereo not shown) [II-26, 2-Methyl-4-trifluoromethylsulfanyl-2-(2-trifluoromethylsulfanyl-ethanesulfonyl)-butyronitrile]
mortality at 2500 ppm [5, 9]: > 90%
